Assay results from ChEMBL document CHEMBL1201862, “PubChem BioAssay data set” (2004).
Active and inactive are the calls of the source.

Experiments:
[1] = molecular target: T1, Neuropeptide Y receptor type 2 (Homo sapiens, UniProt P49146); experiment: Fluorescence-based counterscreen for agonists of NPY-Y1: cell-based high-throughput dose response assay for agonists of NPY-Y2.; assay type: functional
T1 sequence (P49146 whole entry): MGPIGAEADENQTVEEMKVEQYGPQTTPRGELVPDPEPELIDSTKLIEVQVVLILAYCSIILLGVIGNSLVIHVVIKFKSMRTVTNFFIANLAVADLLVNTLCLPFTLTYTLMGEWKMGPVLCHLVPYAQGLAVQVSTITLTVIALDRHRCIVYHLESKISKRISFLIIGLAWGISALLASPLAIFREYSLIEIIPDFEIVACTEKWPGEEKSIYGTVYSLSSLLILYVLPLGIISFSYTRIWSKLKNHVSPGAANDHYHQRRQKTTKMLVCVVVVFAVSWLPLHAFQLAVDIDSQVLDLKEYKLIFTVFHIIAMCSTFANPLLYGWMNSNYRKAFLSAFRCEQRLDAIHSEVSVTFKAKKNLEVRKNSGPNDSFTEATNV

HEK293 = experiment: Fluorescence-based counterscreen for potentiators or agonists of NPY-Y1: cell-based high-throughput dose response assay for inhibitors of cyclic nucleotide gated ion channel (CNGC) activity. In this assay, the parental HEK293 cell line transfected with a cyclic-nucleotide gated ion channel (CNGC)-based cAMP sensor is used to measure inhibition of isoproterenol-induced CNGC …; assay type: functional; details: Homo sapiens
[2] = molecular target: T2, Neuropeptide Y receptor type 1 (Homo sapiens, UniProt P25929); experiment: Fluorescence-based dose response cell-based high-throughput screening assay for agonists of NPY-Y1. [Related pubchem assays: 1697 (Screening assay (NPY-Y1 agonists).), 1359 (Screening assay (NPY-Y2 potentiators or agonists).), 1304 (Screening assay (NPY-Y1 potentiators or agonists).), 1704 (Screening assay (CNGC inhibitors).), 1791 (Summary AID.)]; assay type: functional
T2 sequence (P25929 whole entry): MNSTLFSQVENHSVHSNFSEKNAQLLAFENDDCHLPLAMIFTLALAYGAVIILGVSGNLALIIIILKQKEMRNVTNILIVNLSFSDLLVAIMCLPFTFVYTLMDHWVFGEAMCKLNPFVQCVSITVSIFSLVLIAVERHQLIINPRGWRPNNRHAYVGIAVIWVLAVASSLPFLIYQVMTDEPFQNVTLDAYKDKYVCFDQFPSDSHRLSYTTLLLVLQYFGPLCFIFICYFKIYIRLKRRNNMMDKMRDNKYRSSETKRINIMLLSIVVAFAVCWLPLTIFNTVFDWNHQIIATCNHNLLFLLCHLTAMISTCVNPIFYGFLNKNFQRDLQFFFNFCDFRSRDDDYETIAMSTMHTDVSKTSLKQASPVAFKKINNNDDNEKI

[3] = Luminescence Cell-Based Dose Response HTS to Identify Activators of Luciferase Translation or Activity in H4 […] Cells. [Related pubchem assays: 1829 (Project Summary), 1814 (Primary HTS)]; assay type: functional
[4] = molecular target: Serine/threonine-protein phosphatase (Homo sapiens, UniProt Q9BPW0); experiment: Counterscreen for inhibitors of PP1: fluorescence-based biochemical high throughput dose response assay to identify inhibitors of Protein Phosphatase 5 (PP5). [Related pubchem assays: 2034 (Summary (PP5 inhibitors)), 1987 (PP5 inhibitors in singlate), 2235 (PP1 inhibitors in singlate)]
[5] = molecular target: T3, Mannose-6-phosphate isomerase (Homo sapiens, UniProt P34949); experiment: human PMI inhibitors, high substrate, primary screen, biochemical, fluorescence intensity, high mannose 6-phosphate (AID 1220)
T3 sequence (P34949 whole entry): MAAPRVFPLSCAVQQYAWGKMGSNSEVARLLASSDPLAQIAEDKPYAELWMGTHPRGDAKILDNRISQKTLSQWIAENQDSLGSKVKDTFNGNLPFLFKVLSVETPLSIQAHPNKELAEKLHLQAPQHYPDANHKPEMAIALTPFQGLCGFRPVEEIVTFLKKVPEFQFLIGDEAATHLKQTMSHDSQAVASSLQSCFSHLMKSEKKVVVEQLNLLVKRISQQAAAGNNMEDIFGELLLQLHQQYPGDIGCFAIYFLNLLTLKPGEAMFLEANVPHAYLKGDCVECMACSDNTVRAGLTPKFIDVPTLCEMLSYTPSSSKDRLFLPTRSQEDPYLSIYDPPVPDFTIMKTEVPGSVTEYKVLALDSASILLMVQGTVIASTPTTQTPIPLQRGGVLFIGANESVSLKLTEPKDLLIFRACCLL

[6] = Luminescence Cell-Based Dose Confirmation HTS to Identify Activators of 5'UTR Stem-Loop Driven Alpha-Synuclein mRNA Translation in H4 Neuroglioblastoma Cells. [Related pubchem assays: 1829 (Project Summary), 1814 (Primary HTS)]; assay type: functional
H4 = experiment: Luminescence Cell-Based Dose Response HTS to Identify Activators of 5'UTR Stem-Loop Driven Prion Protein mRNA Translation in H4 Neuroglioblastoma Cells. [Related pubchem assays: 1829 (Project Summary), 1814 (Primary HTS)]; assay type: functional; details: Homo sapiens
[7] = molecular target: Serine/threonine-protein phosphatase PP1-alpha catalytic subunit (Homo sapiens, UniProt P62136); experiment: PP1 phosphatase inhibitors, dose response, biochemical, fluorescence (AID 2403);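 further: phosphatase turnover of OMFP into fluorescent 3-O-methylfluorescein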
[8] = molecular target: T4, Apoptotic protease-activating factor 1 (Homo sapiens, UniProt O14727); assay type: functional
T4 sequence (O14727 whole entry): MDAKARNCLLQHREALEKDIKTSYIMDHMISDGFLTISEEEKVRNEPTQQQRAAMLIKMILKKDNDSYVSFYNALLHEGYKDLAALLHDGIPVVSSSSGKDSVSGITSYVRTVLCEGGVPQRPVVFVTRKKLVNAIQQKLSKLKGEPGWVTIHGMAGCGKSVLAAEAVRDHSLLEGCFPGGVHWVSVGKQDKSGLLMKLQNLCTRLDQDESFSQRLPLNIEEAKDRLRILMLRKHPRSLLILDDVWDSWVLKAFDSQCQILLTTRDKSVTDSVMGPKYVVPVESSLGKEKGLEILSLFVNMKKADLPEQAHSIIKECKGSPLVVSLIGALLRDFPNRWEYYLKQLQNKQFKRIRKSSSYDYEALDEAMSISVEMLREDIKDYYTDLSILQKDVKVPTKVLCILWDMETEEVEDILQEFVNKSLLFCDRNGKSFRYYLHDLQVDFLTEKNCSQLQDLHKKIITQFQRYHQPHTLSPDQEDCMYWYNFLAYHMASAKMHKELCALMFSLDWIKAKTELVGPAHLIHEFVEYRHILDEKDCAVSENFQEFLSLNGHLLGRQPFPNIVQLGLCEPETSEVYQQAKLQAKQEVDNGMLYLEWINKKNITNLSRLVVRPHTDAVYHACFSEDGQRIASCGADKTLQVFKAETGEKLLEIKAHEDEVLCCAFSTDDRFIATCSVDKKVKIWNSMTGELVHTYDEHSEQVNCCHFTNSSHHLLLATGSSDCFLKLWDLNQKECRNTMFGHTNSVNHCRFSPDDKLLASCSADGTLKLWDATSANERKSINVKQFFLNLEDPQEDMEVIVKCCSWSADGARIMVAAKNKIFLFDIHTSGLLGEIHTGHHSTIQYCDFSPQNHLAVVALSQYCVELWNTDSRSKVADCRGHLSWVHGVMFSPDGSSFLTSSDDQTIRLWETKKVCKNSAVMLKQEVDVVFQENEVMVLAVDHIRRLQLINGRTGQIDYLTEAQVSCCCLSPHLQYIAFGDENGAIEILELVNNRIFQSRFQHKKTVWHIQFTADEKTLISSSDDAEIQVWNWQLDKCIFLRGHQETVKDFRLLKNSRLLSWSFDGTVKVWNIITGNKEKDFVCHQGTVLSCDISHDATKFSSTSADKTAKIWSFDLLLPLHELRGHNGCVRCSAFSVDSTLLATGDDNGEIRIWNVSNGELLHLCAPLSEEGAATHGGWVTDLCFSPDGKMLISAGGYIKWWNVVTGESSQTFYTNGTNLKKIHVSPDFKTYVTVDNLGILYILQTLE

[9] = molecular target: Intestinal-type alkaline phosphatase (Homo sapiens, UniProt P09923); experiment: inhibition of human intestinal alkaline phosphatase – biochemical, dose response (AID 488876); assay type: functional
Phospholipase A2 = Phospholipase A2 (Homo sapiens, UniProt P04054); assay type: functional;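 further: confirmatory dose-response counterscreen on phospholipase A2, testing hits that came from an ultra-high-throughput screen for ATG4B inhibitors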
[10] = molecular target: T5, Alkaline phosphatase, tissue-nonspecific isozyme (Homo sapiens, UniProt P05186)
T5 sequence (P05186 whole entry): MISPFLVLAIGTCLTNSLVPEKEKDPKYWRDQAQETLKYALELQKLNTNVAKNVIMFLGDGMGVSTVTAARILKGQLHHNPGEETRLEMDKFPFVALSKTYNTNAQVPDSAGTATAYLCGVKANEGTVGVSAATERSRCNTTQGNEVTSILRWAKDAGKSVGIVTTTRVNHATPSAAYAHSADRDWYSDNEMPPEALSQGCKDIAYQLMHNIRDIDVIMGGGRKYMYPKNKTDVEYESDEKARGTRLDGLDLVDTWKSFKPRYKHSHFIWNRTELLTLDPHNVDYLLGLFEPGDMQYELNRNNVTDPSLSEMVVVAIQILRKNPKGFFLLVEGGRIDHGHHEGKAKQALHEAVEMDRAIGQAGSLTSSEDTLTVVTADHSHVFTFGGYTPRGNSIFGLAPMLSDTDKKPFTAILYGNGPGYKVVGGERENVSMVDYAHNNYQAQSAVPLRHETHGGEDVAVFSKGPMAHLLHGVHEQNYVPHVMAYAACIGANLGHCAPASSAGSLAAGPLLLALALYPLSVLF

[11] = molecular target: T5, Alkaline phosphatase, tissue-nonspecific isozyme; experiment: TNAP enzyme inhibition by screening hits, dose response, selectivity assay for mouse IAP inhibitor project, biochemical, human TNAP, uHTS hits (AID 488906); assay type: functional
[12] = molecular target: Intestinal-type alkaline phosphatase (Mus musculus, UniProt P24822); experiment: PubChem AID 488785; assay type: functional
[13] = molecular target: T6, Short transient receptor potential channel 4 (Mus musculus, UniProt Q9QUQ5); experiment: mouse TRPC4 channel inhibitors, dose response, cell-based, HEK293 TRPC4/mu-opioid, Fluo-4 calcium (AID 434942); assay type: functional;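 further: potency of inhibitors blocking the TRPC4 calcium response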
T6 sequence (Q9QUQ5 whole entry): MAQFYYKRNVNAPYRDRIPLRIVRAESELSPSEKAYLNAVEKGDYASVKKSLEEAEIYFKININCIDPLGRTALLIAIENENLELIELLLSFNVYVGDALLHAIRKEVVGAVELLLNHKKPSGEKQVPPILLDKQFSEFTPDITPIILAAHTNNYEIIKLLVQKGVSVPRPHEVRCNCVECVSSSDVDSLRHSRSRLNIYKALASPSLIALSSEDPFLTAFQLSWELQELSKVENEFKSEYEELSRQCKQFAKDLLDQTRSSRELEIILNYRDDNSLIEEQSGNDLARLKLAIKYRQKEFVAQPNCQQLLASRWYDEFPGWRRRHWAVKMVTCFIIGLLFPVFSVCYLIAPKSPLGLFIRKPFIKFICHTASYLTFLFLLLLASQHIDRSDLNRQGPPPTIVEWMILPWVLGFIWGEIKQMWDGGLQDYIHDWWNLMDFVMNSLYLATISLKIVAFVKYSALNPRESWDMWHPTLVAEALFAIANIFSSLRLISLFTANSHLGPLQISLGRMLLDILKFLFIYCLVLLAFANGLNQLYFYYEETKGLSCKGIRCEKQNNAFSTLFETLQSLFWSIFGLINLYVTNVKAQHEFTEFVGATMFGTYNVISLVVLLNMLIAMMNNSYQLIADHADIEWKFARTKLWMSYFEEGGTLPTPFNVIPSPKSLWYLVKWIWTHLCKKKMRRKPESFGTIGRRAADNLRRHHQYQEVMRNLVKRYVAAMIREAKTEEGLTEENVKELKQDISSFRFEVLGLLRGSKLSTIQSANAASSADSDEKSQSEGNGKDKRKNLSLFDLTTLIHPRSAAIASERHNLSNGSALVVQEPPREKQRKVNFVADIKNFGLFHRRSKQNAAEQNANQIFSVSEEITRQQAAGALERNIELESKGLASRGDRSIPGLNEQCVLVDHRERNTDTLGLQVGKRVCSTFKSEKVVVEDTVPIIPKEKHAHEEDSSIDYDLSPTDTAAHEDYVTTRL

Cysteine protease ATG4B = Cysteine protease ATG4B (Homo sapiens, UniProt Q9Y4P1); assay type: functional;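 further: Fluorescence-based dose-response confirmation assay measuring inhibition of ATG4B activity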
Streptococcus = experiment: Luminescence Microorganism-Based Dose Response Follow up to Identify Compounds Cytotoxic to Streptococcus. [Related pubchem assays: 1677 (Project Summary), 1915, 1914, 1902 (Retest at Dose), 1900 (Counter Screen), 1662 (Primary HTS)]; assay type: functional, organism-based
[14] = molecular target: Mothers against decapentaplegic homolog 3 (Homo sapiens, UniProt P84022); experiment: Smad3 binding inhibitors, lysate ELISA, dose response, cell lysate, secondary confirmation, chemiluminescent ELISA, HEK293 lysate (AID 1058); assay type: functional
[15] = molecular target: Mitochondrial peptide methionine sulfoxide reductase (Bos taurus, UniProt P54149); assay type: functional;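 further: absorbance read-out, biochemical high-throughput dose-response screen for MsrA inhibitors, confirmatory; recombinant bovine MsrA coupled to E. coli TrxB with NADPH and selenocystamine; potency is for inhibitors of MsrA activity on DMSO substrate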
[16] = molecular target: T7, Eukaryotic translation initiation factor 2-alpha kinase 3 (Homo sapiens, UniProt Q9NZJ5); experiment: Dose response cell-based high-throughput screening assay to measure PERK inhibition. [Related pubchem assays: 1416 ]; assay type: functional
[17] = molecular target: T7, Eukaryotic translation initiation factor 2-alpha kinase 3; experiment: Counterscreen assay for PERK inhibitors: Dose response cell-based high throughput screening assay to measure inhibition of PERK at 6 hours. [Related pubchem assays: 1522, 1416 ]; assay type: functional

T7 sequence (Q9NZJ5 whole entry): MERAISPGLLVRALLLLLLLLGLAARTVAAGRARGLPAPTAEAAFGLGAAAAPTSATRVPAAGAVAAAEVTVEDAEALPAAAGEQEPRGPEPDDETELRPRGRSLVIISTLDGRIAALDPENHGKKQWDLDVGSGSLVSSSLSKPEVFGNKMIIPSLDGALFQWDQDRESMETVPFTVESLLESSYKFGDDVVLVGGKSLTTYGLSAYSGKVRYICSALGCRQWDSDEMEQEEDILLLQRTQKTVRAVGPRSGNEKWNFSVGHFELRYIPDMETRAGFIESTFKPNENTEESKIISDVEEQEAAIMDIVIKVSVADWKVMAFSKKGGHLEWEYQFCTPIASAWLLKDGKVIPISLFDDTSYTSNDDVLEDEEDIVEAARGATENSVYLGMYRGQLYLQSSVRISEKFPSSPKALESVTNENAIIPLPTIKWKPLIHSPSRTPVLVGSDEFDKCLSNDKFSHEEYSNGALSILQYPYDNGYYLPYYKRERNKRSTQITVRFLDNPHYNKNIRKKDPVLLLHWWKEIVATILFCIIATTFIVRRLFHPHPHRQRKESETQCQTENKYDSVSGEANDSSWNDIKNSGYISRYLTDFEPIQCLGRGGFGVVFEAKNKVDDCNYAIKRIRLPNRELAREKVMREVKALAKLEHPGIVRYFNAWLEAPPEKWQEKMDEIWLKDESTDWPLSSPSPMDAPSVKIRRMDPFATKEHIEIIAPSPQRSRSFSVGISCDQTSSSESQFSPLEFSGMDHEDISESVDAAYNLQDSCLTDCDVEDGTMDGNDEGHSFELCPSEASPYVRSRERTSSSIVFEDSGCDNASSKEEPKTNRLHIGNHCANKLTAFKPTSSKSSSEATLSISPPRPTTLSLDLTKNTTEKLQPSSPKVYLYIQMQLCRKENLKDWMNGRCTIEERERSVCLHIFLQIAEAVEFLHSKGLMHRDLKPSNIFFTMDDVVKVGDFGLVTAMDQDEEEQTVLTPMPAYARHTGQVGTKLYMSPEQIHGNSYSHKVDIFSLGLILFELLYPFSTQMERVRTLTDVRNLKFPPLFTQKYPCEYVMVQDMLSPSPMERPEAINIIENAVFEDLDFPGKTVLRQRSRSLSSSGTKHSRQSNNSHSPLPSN
Intestinal-type alkaline phosphatase (Homo sapiens, UniProt P09923), sequence (P09923 whole entry): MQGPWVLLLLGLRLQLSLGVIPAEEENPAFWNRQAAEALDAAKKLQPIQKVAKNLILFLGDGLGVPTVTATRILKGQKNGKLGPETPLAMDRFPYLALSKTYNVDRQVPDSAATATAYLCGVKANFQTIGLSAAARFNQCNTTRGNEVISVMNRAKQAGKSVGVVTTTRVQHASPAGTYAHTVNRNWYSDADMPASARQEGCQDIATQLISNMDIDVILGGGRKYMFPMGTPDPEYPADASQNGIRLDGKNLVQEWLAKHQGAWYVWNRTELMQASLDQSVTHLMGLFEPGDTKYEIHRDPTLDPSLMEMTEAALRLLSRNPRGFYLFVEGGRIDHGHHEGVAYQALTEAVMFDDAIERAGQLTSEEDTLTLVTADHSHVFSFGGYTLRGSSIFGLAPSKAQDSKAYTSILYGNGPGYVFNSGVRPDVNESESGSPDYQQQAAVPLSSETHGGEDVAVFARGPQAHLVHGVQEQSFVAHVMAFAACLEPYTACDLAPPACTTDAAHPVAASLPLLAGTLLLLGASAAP
Serine/threonine-protein phosphatase PP1-alpha catalytic subunit, sequence (P62136 whole entry): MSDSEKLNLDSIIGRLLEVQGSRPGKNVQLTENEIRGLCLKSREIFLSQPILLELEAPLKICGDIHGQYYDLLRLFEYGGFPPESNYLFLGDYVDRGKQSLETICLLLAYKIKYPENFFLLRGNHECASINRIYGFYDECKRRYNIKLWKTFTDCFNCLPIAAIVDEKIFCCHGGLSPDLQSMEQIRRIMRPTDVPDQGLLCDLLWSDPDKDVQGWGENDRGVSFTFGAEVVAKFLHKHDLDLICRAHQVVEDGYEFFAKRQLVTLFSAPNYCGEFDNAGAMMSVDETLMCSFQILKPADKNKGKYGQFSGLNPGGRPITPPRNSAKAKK
Serine/threonine-protein phosphatase, sequence (Q9BPW0 whole entry): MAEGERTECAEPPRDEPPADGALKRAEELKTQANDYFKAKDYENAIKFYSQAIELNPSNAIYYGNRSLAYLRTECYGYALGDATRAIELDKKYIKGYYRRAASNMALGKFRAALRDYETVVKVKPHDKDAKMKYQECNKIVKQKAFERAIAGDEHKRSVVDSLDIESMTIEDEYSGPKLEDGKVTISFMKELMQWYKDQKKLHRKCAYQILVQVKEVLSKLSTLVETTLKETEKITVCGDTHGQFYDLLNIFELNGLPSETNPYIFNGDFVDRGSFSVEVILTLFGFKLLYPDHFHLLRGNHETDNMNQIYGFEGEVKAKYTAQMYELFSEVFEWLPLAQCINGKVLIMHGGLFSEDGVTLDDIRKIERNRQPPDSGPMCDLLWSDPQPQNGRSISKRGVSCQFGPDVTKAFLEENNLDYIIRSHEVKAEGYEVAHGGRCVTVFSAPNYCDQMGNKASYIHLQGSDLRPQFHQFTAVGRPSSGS
Mothers against decapentaplegic homolog 3, sequence (P84022 whole entry): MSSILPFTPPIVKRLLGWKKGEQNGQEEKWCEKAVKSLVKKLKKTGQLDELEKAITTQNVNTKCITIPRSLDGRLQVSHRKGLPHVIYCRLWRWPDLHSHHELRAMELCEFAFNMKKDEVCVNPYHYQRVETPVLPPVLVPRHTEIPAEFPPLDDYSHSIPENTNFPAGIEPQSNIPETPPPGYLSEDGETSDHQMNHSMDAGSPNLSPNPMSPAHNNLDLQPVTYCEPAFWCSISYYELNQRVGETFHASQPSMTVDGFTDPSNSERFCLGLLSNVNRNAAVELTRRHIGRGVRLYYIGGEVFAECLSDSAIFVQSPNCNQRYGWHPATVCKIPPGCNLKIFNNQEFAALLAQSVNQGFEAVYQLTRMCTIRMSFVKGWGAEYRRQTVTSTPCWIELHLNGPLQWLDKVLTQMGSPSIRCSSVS
Mitochondrial peptide methionine sulfoxide reductase, sequence (P54149 whole entry): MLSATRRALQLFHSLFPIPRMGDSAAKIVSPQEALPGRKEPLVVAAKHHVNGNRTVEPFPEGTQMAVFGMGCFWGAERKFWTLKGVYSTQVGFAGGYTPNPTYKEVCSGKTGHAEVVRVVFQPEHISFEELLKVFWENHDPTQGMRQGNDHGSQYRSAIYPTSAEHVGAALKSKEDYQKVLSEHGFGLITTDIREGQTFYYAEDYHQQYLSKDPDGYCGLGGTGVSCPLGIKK
Cysteine protease ATG4B, sequence (Q9Y4P1 whole entry): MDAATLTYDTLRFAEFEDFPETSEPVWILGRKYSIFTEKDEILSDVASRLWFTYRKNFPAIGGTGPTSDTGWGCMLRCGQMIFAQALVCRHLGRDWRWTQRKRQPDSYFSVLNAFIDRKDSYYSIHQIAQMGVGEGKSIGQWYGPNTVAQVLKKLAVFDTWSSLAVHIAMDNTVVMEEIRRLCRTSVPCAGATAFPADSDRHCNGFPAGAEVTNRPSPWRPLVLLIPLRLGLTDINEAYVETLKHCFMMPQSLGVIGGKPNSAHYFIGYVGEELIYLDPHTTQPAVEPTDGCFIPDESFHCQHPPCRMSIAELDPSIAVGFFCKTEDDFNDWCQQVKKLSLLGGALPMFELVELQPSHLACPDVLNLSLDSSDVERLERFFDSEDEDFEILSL
Intestinal-type alkaline phosphatase (Mus musculus, UniProt P24822), sequence (P24822 whole entry): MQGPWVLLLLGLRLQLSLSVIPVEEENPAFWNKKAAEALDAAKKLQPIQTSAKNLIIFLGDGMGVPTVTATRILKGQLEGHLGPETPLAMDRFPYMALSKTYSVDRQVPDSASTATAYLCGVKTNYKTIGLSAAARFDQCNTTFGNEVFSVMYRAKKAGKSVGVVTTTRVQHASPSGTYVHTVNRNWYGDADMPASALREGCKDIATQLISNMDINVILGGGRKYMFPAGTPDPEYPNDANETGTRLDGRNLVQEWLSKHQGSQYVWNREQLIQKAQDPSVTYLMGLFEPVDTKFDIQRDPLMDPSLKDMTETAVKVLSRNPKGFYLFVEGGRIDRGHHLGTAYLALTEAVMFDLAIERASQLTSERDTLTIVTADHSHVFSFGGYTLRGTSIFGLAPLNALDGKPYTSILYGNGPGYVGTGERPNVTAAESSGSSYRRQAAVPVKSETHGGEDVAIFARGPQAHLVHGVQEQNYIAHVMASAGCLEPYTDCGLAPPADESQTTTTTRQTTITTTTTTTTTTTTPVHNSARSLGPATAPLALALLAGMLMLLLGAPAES
Phospholipase A2, sequence (P04054 whole entry): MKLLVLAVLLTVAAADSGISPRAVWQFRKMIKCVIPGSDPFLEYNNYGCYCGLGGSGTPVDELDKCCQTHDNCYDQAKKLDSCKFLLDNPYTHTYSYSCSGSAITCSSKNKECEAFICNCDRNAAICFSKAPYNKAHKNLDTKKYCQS

In the case of `CC(C)c1ccc2[nH]c(O)c(N=NC(=O)c3cccc(S(=O)(=O)Nc4cccc(Cl)c4)c3)c2c1`, the EC50 [1] is reported as > 35.4 µM (not active), the IC50 (HEK293) is reported as > 35.4 µM (not active) and the EC50 [2] is reported as > 35.4 µM (not active).

For `N#Cc1c(N2CCCC(O)C2)nc(N)c2c(N)nc3c(c12)CC(=O)N3C12CC3CC(CC(C3)C1)C2` (configuration not stated), the EC50 [3] was 9.64 µM (active), the IC50 [4] was 29.5 µM (not active) and the IC50 [5] was > 50 µM (not active). The EC50 [6] was 12.6 µM (active), the EC50 (H4) was > 120 µM (not active) and the IC50 [7] was > 67 µM (not active). For the same molecule, the IC50 [8] was 73 µM (active).

With `Cc1ccc(CN2C3CCCC2CC(NC(=S)NCc2ccccc2)C3)cc1` (configuration not stated) the IC50 [9] was > 100 µM (inactive), the IC50 (Phospholipase A2) was 7.96 µM (active) and the EC50 [10] was 64.9 µM (not active). For the same molecule, the IC50 [11] was 91.3 µM (active), the IC50 [12] was 5.23 µM (active) and the EC50 [13] was 2.66 µM (active). The IC50 (Cysteine protease ATG4B) was 15.6 µM (active).

For `O=C(c1ccc(Cl)cc1)n1c2ccccc2c2ccccc21`, the EC50 (Streptococcus) was > 500 µM (not active).

In the case of `COc1ccc(C(c2cc3c(cc2O)OCO3)N2CCOCC2)c(OC)c1OC` (configuration not stated), the IC50 [14] is reported as 3.97 µM (not active).

For `NC(=S)N/N=C/c1ccc(/C=N/NC(N)=S)cc1`, the IC50 [15] was 155 µM (inactive), the EC50 [16] was > 55.7 µM (not active) and the EC50 [17] was > 55.7 µM (not active).
